This is an account of results in ChEMBL document CHEMBL1201862, “PubChem BioAssay data set” (2004).

Among the test systems are CCRF-CEM; MDA-N; SK-MEL-5; Malme-3M; SF-539; K562; U-251; MCF7; OVCAR-5; LOX IMVI; T47D; KM12; SF-268; 786-0; HCT-116; HT-29; NCI-H226; MDA-MB-231; MDA-MB-435; SK-OV-3.
Holding throughout (assay): growth of human tumour cells (NCI), 48 h

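Tested at 5 concentrations; 48 h exposure; 96-well plates; endpoints linearly interpolated, else capped at highest concentration. Here, GI50 denotes the concentration required for 50% inhibition of growth.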 The source made the active and inactive calls. Cut-off read from the data, not from the text of the source: active = GI50 up to about 1.1 µM and inactive = higher. Residues, ends and D or L forms follow the SMILES beside them. *: point of attachment. Cbz = O=C(OCc1ccccc1)*

For `O=C1c2c(nc3ccccc3c2-c2ccccc2)CN1Nc1ccccn1`, the GI50 is 79.1 µM (inactive) in the assay on CCRF-CEM; > 100 µM (inactive) in the assay with MDA-N; 74.5 µM (inactive) in the assay on SK-MEL-5; 78.3 µM (inactive) in the assay on Malme-3M; > 75.2 µM (inactive) in the assay on SF-539; 83.4 µM (inactive) in the assay on K562. The GI50 is 66.7 µM (inactive) in the assay on U-251; > 70 µM (inactive) with MCF7; > 100 µM (inactive) in the assay with OVCAR-5; > 76.9 µM (inactive) with LOX IMVI; > 68.4 µM (inactive) with T47D; 76 µM (inactive) with KM12. The GI50 was 75.9 µM (inactive) with SF-268; > 74.5 µM (inactive) in the assay on 786-0; 79.8 µM (inactive) in the assay on HCT-116; > 100 µM (inactive) in the assay on HT-29; 61.1 µM (inactive) with NCI-H226; > 100 µM (inactive) with MDA-MB-231. Moreover, the GI50 in the assay on MDA-MB-435 is > 100 µM (inactive); in the assay on SK-OV-3, 98.2 µM (inactive).

Turning to `O=[N+]([O-])c1ccc(Sc2c3ccccc3nc3ccccc23)nc1`, the GI50 was 2.51 µM (inactive) in the assay with CCRF-CEM; 5.12 µM (inactive) in the assay with MDA-N; 16.7 µM (inactive) in the assay with SK-MEL-5; 2.11 µM (inactive) with Malme-3M; 16.7 µM (inactive) in the assay with SF-539; 2.08 µM (inactive) in the assay on K562. In addition, the GI50 in the assay with U-251 is 24.3 µM (inactive); in the assay on MCF7, 3.79 µM (inactive); in the assay with OVCAR-5, 18.6 µM (inactive); in the assay on LOX IMVI, 2.24 µM (inactive); in the assay on T47D, 2.57 µM (inactive); in the assay with KM12, 23.8 µM (inactive). Moreover, the GI50 in the assay on SF-268 was 8.71 µM (inactive); with 786-0, 2.2 µM (inactive); in the assay with HCT-116, 2.09 µM (inactive); in the assay with HT-29, 3.06 µM (inactive); in the assay on NCI-H226 it was 16.3 µM (inactive); in the assay with MDA-MB-231, 6.14 µM (inactive). For the same compound, the GI50 in the assay on MDA-MB-435 is 8.55 µM (inactive); in the assay on SK-OV-3, 13.2 µM (inactive).

As to `C=C1C(=O)OC2(C)CCC1CC1OC1(C)CCC=C(C)CCC2O` (stereo not given), the GI50 was 7.08 µM (inactive) with CCRF-CEM; 25.5 µM (inactive) with MDA-N; > 100 µM (inactive) with SK-MEL-5; > 100 µM (inactive) with Malme-3M; 88.3 µM (inactive) with SF-539; 31 µM (inactive) in the assay on K562. The GI50 in the assay with U-251, with MCF7, in the assay with OVCAR-5, in the assay with LOX IMVI, in the assay with T47D and in the assay with KM12 was > 100 µM (inactive) in each case. Besides, the GI50 in the assay with SF-268, with 786-0, in the assay with HCT-116, in the assay with HT-29, with NCI-H226 and with MDA-MB-231 was > 100 µM (inactive) throughout. For the same compound, the results for the GI50 with MDA-MB-435 and with SK-OV-3 were 44.3 µM (inactive) and > 100 µM (inactive), respectively.

As for `O=[N+]([O-])c1ccc(-n2nc3ccc4nonc4c3n2)cc1`, the GI50 in the assay with CCRF-CEM is > 100 µM (inactive); in the assay with MDA-N, > 100 µM (inactive); in the assay on SK-MEL-5, 31.2 µM (inactive); with Malme-3M it was 24.2 µM (inactive); in the assay with SF-539 it was 44.8 µM (inactive); in the assay on K562, > 100 µM (inactive). The GI50 was 77.1 µM (inactive) with U-251; 20.4 µM (inactive) with MCF7; > 100 µM (inactive) in the assay with OVCAR-5; 42.4 µM (inactive) in the assay on LOX IMVI; 29.6 µM (inactive) with T47D; 94.8 µM (inactive) in the assay on KM12. Also, the GI50 in the assay on SF-268 was 34.3 µM (inactive); in the assay with 786-0, 28.1 µM (inactive); in the assay on HCT-116 it was 74.6 µM (inactive); with HT-29 it was > 100 µM (inactive); in the assay on NCI-H226, 17.8 µM (inactive); in the assay on MDA-MB-231, > 100 µM (inactive). In addition, the GI50 in the assay with MDA-MB-435 was > 100 µM (inactive); in the assay on SK-OV-3, 20 µM (inactive).

On to `CCOC(=O)CCC(NC(=O)OCc1ccccc1)C(=O)NC(CCC(=O)OCC)C(=O)OCC` (stereo not given) (Cbz-Glu(OEt)-Glu(OEt)-OEt; configuration not given here), for which the GI50 in the assay on CCRF-CEM, in the assay with MDA-N, with SK-MEL-5, with Malme-3M, in the assay on SF-539 and in the assay on K562 was > 100 µM (inactive) throughout. The GI50 with U-251, with MCF7, with OVCAR-5, in the assay with LOX IMVI, in the assay on T47D and with KM12 was > 100 µM (inactive) each time. In addition, the GI50 in the assay on SF-268, with 786-0, in the assay on HCT-116, with HT-29, with NCI-H226 and with MDA-MB-231 was > 100 µM (inactive) throughout. For the same compound, the GI50 in the assay with MDA-MB-435 and in the assay on SK-OV-3 was > 100 µM (inactive) in each case.

On to `COC(=O)[C@@H]1C[C@H]([Se]c2ccccc2)CN1C(=O)OCc1ccccc1`, for which the GI50 in the assay with CCRF-CEM was 34.1 µM (inactive); with MDA-N it was 19.2 µM (inactive); in the assay on SK-MEL-5, 16.9 µM (inactive); in the assay with Malme-3M, 26.2 µM (inactive); in the assay on SF-539, 39.8 µM (inactive); in the assay with K562, 26.8 µM (inactive). Also, the GI50 was 35.2 µM (inactive) with U-251; 20 µM (inactive) with MCF7; > 100 µM (inactive) with OVCAR-5; 12.6 µM (inactive) in the assay with LOX IMVI; 16 µM (inactive) with T47D; 30.8 µM (inactive) with KM12. Further, the GI50 in the assay with SF-268 is 47.5 µM (inactive); with 786-0 it was 41.7 µM (inactive); in the assay with HCT-116, 34.1 µM (inactive); in the assay with HT-29, 26 µM (inactive); with NCI-H226, 32.7 µM (inactive); with MDA-MB-231, 48.9 µM (inactive). Further, the GI50 with MDA-MB-435 is 24.3 µM (inactive); with SK-OV-3, > 100 µM (inactive).

Take `COC(=O)C1=C(C(=O)OC)C2(c3ccccc3)c3ccccc3C(=O)C1N2C1CCCCC1` (stereo not given): the GI50 in the assay with CCRF-CEM is 26.7 µM (inactive); in the assay with MDA-N, > 65 µM (inactive); in the assay on SK-MEL-5, 26.2 µM (inactive); in the assay with Malme-3M, 58.2 µM (inactive); in the assay with SF-539, 69.3 µM (inactive); with K562 it was 3.42 µM (inactive). Moreover, the GI50 with U-251 was 49.9 µM (inactive); with MCF7, 37.7 µM (inactive); in the assay on OVCAR-5, 54.8 µM (inactive); in the assay with LOX IMVI, 22 µM (inactive); in the assay with T47D it was > 100 µM (inactive); in the assay with KM12, 17.8 µM (inactive). Besides, the GI50 in the assay with SF-268 was 88.7 µM (inactive); in the assay with 786-0, 47.4 µM (inactive); with HCT-116, 14.7 µM (inactive); in the assay on HT-29 it was 42.1 µM (inactive); in the assay on NCI-H226 it was 50.4 µM (inactive); with MDA-MB-231, > 32.4 µM (inactive). For the same compound, the GI50 in the assay on MDA-MB-435 is 86.7 µM (inactive); in the assay with SK-OV-3 it was > 96.2 µM (inactive).

Take `Cn1c2cc(Cl)ccc2c2ccc3c(c21)C(=O)C=CC3=O`: the GI50 was 3.68 µM (inactive) in the assay with CCRF-CEM; 26.1 µM (inactive) in the assay on MDA-N; 39.8 µM (inactive) with SK-MEL-5; 16.5 µM (inactive) with Malme-3M; > 55 µM (inactive) in the assay with SF-539; 3.4 µM (inactive) with K562. The GI50 with U-251 is 45.9 µM (inactive); in the assay on MCF7 it was 13.8 µM (inactive); in the assay on OVCAR-5 it was 86.5 µM (inactive); with LOX IMVI, 42.5 µM (inactive); with T47D, 14.1 µM (inactive); with KM12 it was > 100 µM (inactive). For the same compound, the GI50 in the assay on SF-268 was 38.6 µM (inactive); in the assay on 786-0, 18.8 µM (inactive); in the assay with HCT-116 it was 20.8 µM (inactive); with HT-29 it was 31.4 µM (inactive); with NCI-H226, > 100 µM (inactive); with MDA-MB-231, 26.9 µM (inactive). The figures for the GI50 in the assay on MDA-MB-435 and with SK-OV-3 were 25.4 µM (inactive) and > 100 µM (inactive), respectively.

Regarding `Nc1nc(Cl)cc(NCC2(CO)CC(Cc3ccccc3)C2)n1` (stereo not given), the GI50 in the assay with CCRF-CEM is 29.5 µM (inactive); in the assay on MDA-N, 25.1 µM (inactive); in the assay on SK-MEL-5 it was 0.417 µM (active); in the assay with Malme-3M it was 29.4 µM (inactive); in the assay with SF-539, 59.3 µM (inactive); with K562, 2.92 µM (inactive). Also, the GI50 with U-251 was 27.9 µM (inactive); in the assay with MCF7, 11.2 µM (inactive); with OVCAR-5, > 58.7 µM (inactive); in the assay with LOX IMVI, 4.37 µM (inactive); with T47D, 1.34 µM (inactive); in the assay with KM12 it was 35.1 µM (inactive). Further, the GI50 with SF-268 was 21.6 µM (inactive); in the assay on 786-0 it was > 60.8 µM (inactive); in the assay with HCT-116, 5.81 µM (inactive); with HT-29, 29 µM (inactive); in the assay on NCI-H226 it was 13.2 µM (inactive); in the assay with MDA-MB-231 it was 42.3 µM (inactive). Moreover, the GI50 was 19.4 µM (inactive) with MDA-MB-435 and 52 µM (inactive) with SK-OV-3.

As for `CCOC(=O)C1=CC(C)(C(=O)OCC)Nc2c(nc(N)[nH]c2=O)N1` (stereo not given), the GI50 in the assay on CCRF-CEM, in the assay with MDA-N, in the assay with SK-MEL-5, in the assay on Malme-3M, with SF-539 and in the assay with K562 was > 10 µM (inactive) each time. For the same compound, the GI50 in the assay on U-251, in the assay with MCF7, in the assay on OVCAR-5, in the assay with LOX IMVI, with T47D and with KM12 was > 10 µM (inactive) in each case. Further, the GI50 in the assay on SF-268, in the assay on 786-0, in the assay with HCT-116, in the assay with HT-29, with NCI-H226 and in the assay with MDA-MB-231 was > 10 µM (inactive) each time. Besides, the GI50 in the assay with MDA-MB-435 and in the assay with SK-OV-3 was > 10 µM (inactive) each time.
